Source: patent US12227488B2, “Small molecule degraders of Helios and methods of use” (DANA-FARBER CANCER INSTITUTE, INC., priority 2018, dated 2025)

Legend:
CRBN and Helios (IKZF2) = target: T1, CRBN and Helios (IKZF2) (Homo sapiens, UniProt Q96SW2+Q9UKS7); experiment: TR-FRET dimerization assay (CRBN-IKZF2 ternary complex formation); assay type: binding; conditions: n=1
T1 construct: His (N); Strep (N)
Method in brief: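 BODIPY-labeled DDB1ΔB-CRBN and in vitro biotinylated IKZF2 were treated with increasing compound concentrations plus tracer Terbium-Streptavidin and incubated 15 min at rt. Recruitment was quantified as the 520/490 nm TR-FRET ratio; values are single measurements (n=1), each averaged from at least three technical replicates.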

IKZF2 = experiment: Cellular degradation assay, eGFP-IKZF2Δ fusion with mCherry reporter in Flp-In 293 cells; assay type: cell-based; conditions: 5 h incubation, n=1
Method in brief: (§1)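 Flp-In 293 cells stably expressing eGFP-tagged degron fusions with P2A-mCherry reporter were treated with compound titrations (0.5% DMSO) for 5 hours. Imaging quantified GFP-positive/mCherry-positive cell fraction per well; DC50 at 5 h from nonlinear variable-slope fit.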

IKZF1 = target: T2, IKZF1 (Homo sapiens, UniProt Q13422); experiment: Cellular degradation assay, eGFP-IKZF1Δ fusion with mCherry reporter in Flp-In 293 cells; assay type: cell-based; conditions: 5 h incubation, n=1
T2 construct: expressed in transfected cells; host or cells: Flp-In 293
Method in brief: as §1

SALL4 ZNF1-2 = target: T3, SALL4 ZNF1-2 (Homo sapiens, UniProt Q96SW2+Q9UJQ4); experiment: Cellular degradation assay, eGFP-SALL4 ZnF1-2 fusion with mCherry reporter in Flp-In 293 cells; assay type: cell-based; conditions: 5 h incubation, n=1
T3 construct: IKZF1Δ, IKZF2Δ, GSPT1 and SALL4 ZnF1-2 were subcloned; expressed in transfected cells; host or cells: Flp-In 293
Protocol: IKZF1Δ, IKZF2Δ, GSPT1 and SALL4 ZnF1-2 were subcloned into mammalian pcDNA5/FRT Vector (Ampicillin and Hygromycin B resistant) modified to contain MCS-eGFP-P2A-mCherry. Stable cell lines expressing eGFP-protein fusion and mCherry reporter were generated using Flp-In™ 293 system. Plasmid (0.3 μg) and pOG44 (4.7 μg) DNA were preincubated in 100 μL of Opti-MEM® I (Gibco®, Life Technologies™) media containing 0.05 mg/mL Lipofectamine® 2000 (Invitrogen™) for 20 min and added to Flp-In™ 293 cells containing 1.9 ml of DMEM media (Gibco®, Life Technologies™) per well in a 6-well plate format (Falcon, 353046). Cells were propagated after 48 h and transferred into a 10 cm^2 plate (Corning, 430165) in DMEM media containing 50 μg/mL of Hygromycin B (REF 10687010, Invitrogen™) as a selection marker. Following 2-3 passage cycle, FACS (FACSAria™ II, BD) was used to enrich for cells expressing eGFP and mCherry. Cells stably expressing the IKZF1Δ, IKZF2Δ, GSPT1 or SALL4 Znf1-2 GFP fusions with mCherry reporter were seeded at 30-50% confluency in 384-well plates with 50 μL FluoroBrite™ DMEM media (Thermo Fisher Scientific, A18967) containing 10% FBS per well a day before compound treatment. Compound titrations were dispensed using a D300e Digital Dispenser (HP), normalized to 0.5% DMSO, and incubated with cells for 5 hours. The assay plate was imaged immediately using an Acumen® High Content Imager (TTP Labtech) with 488 nm and 561 nm lasers in […] grid per well format.
The resulting images were analyzed using CellProfiler™. A series of image analysis steps (‘image analysis pipeline’) was constructed. First, the red and green channels were aligned and cropped to target the middle of each well (to avoid analysis of heavily clumped cells at the edges), and a background illumination function was calculated for both red and green channels of each well individually and subtracted to correct for illumination variations across the 384-well plate from various sources of error. An additional step was then applied to the green channel to suppress the analysis of large auto fluorescent artifacts and enhance the analysis of cell specific fluorescence by way of selecting for objects under a given size, 30 A.U., and with a given shape, speckles. mCherry-positive cells were then identified in the red channel filtering for objects between 8-60 pixels in diameter and using intensity to distinguish between clumped objects. The green channel was then segmented into GFP positive and negative areas and objects were labeled as GFP positive if at least 40% of it overlapped with a GFP positive area. The fraction of GFP-positive cells/mCherry-positive cells in each well was then calculated, and the green and red images were rescaled for visualization.

GSPT1 = GSPT1 (Homo sapiens, UniProt P15170+Q96SW2); experiment: Cellular degradation assay, eGFP-GSPT1 fusion with mCherry reporter in Flp-In 293 cells; assay type: cell-based; parameters: expressed in transfected cells; host or cells: Flp-In 293; conditions: 5 h incubation, n=1
Method in brief: as §1

[1] = compound concentration 6.6667E−05
[2] = compound concentration 6.6667E−06
[3] = compound concentration 6.6667E−07 (667 nM)
[4] = compound concentration 2.00E−05
[5] = compound concentration 2.00E−06
[6] = compound concentration 2.00E−07

T2 sequence (Q13422 83-213 isoform Q13422-7 limits assumed): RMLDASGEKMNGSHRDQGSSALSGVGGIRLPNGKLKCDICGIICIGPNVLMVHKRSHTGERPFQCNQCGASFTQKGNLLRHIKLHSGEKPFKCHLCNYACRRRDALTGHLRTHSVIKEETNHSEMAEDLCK
T2 sequence (Q96SW2 whole entry partner, the tested form may be a part): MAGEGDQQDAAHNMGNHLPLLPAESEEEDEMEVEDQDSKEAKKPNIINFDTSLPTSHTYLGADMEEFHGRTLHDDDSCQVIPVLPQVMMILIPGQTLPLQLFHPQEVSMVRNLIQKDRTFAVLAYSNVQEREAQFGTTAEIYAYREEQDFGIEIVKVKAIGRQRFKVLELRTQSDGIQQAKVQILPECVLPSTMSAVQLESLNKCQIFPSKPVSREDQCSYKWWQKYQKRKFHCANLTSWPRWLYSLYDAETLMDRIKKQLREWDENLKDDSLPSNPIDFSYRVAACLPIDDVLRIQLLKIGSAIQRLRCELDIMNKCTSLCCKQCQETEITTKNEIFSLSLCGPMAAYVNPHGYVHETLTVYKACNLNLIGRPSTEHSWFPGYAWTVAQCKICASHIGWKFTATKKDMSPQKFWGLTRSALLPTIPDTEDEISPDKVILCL
T2 sequence (Q16531 2-1140 partner limits assumed): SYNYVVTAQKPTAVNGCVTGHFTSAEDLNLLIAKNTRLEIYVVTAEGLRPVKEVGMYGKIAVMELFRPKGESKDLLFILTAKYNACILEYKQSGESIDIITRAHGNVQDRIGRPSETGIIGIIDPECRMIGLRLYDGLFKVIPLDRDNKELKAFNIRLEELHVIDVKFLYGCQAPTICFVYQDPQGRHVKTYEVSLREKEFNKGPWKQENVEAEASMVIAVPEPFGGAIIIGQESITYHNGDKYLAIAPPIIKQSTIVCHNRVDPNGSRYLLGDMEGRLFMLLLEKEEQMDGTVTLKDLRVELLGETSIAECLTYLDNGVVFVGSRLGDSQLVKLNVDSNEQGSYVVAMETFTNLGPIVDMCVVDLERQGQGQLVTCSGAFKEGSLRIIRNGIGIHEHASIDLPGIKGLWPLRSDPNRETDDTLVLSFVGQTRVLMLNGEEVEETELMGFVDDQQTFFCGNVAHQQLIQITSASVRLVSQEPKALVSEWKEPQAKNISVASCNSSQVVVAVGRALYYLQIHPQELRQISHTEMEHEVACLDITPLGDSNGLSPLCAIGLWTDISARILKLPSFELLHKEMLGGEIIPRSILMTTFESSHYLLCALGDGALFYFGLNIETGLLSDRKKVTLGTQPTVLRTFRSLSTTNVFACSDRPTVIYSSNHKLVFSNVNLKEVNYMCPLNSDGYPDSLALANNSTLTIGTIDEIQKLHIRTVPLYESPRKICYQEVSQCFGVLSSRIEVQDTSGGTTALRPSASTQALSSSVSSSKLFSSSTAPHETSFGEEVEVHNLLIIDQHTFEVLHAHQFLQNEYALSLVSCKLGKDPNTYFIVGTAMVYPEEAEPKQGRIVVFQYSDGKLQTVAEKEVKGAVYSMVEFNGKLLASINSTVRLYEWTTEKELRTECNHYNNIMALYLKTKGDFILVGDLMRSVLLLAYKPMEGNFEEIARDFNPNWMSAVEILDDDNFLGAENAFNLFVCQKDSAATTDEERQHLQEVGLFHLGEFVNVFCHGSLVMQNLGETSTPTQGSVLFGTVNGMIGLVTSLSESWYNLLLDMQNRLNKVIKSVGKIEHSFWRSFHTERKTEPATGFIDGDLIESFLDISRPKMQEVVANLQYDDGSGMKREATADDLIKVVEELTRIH
T1 sequence (Q96SW2 whole entry): as the sequence (Q96SW2 whole entry partner, the tested form may be a part) above
T1 sequence (Q9UKS7 whole entry): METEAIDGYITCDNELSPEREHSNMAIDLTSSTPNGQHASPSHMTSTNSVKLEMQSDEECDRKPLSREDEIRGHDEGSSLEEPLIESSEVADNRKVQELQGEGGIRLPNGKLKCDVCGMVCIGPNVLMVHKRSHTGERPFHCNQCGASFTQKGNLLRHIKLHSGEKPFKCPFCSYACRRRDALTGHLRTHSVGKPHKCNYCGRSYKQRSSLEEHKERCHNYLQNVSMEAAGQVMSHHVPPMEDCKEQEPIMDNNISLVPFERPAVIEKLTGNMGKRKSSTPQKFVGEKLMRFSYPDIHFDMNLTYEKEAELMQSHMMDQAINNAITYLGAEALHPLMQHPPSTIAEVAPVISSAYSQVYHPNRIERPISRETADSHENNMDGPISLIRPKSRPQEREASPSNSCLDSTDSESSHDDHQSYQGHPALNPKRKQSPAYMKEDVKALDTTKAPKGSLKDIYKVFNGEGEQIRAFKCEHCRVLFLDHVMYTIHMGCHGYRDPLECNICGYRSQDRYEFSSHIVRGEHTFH
T3 sequence (Q9UJQ4 378-438 limits assumed): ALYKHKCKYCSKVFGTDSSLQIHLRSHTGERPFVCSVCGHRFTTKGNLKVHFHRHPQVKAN
T3 sequence (Q96SW2 whole entry, the tested form may be a part): as the sequence (Q96SW2 whole entry partner, the tested form may be a part) above
T3 sequence (Q16531 whole entry partner, the tested form may be a part): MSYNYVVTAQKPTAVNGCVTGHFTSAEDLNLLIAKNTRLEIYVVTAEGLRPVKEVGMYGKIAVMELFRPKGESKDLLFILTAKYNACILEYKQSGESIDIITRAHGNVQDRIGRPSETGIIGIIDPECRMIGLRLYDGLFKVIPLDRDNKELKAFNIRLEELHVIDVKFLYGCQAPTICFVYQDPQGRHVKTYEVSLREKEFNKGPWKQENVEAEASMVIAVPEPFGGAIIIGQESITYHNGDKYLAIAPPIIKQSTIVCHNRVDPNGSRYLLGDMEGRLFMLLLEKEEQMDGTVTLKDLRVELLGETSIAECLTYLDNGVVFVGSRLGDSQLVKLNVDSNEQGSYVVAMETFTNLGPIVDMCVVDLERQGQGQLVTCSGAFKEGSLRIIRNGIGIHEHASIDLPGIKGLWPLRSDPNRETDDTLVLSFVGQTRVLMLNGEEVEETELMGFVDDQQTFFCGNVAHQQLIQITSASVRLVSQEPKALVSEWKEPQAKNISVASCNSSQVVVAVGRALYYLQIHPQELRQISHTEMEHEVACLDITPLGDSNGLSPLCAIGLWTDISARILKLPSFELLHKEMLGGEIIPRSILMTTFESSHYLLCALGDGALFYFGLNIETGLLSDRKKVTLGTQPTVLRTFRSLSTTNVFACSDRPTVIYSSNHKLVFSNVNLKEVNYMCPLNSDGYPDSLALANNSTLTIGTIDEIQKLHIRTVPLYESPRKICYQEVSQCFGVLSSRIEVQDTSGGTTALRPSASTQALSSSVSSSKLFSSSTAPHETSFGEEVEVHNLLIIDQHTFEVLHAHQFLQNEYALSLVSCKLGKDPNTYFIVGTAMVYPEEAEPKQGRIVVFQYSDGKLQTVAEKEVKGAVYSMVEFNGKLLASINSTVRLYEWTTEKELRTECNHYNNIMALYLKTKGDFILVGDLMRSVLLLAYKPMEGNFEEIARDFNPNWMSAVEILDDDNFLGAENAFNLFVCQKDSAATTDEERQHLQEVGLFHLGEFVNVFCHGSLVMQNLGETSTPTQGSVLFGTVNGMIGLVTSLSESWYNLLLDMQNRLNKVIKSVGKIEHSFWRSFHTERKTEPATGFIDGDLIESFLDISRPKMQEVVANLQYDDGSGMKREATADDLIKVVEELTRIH
GSPT1, sequence (P15170 whole entry, the tested form may be a part): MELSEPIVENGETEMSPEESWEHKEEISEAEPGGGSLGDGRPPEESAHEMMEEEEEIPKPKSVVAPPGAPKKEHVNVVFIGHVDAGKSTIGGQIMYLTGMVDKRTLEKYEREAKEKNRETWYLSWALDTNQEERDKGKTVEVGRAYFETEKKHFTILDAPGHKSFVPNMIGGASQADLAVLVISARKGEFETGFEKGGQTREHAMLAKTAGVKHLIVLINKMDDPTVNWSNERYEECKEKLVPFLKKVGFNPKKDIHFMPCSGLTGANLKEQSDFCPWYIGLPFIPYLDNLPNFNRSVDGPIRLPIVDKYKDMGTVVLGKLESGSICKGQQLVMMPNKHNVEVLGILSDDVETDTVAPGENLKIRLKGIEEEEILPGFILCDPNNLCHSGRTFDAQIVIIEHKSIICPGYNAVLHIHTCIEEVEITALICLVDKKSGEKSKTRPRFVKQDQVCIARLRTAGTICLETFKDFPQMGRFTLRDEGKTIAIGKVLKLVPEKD
GSPT1, sequence (Q96SW2 whole entry, the tested form may be a part): as the sequence (Q96SW2 whole entry partner, the tested form may be a part) above
GSPT1, sequence (Q16531 whole entry partner, the tested form may be a part): as the sequence (Q16531 whole entry partner, the tested form may be a part) above

Row | Compound | TR-FRET-IKZF2 (Normalized to CC-885) (CRBN and Helios (IKZF2); [1]) | TR-FRET-IKZF2 (Normalized to CC-885) (CRBN and Helios (IKZF2); [2]) | TR-FRET-IKZF2 (Normalized to CC-885) (CRBN and Helios (IKZF2); [3]) | IKZF2 GFP/RFP Relative Abundance (IKZF2; [4]) | IKZF2 GFP/RFP Relative Abundance (IKZF2; [5]) | IKZF2 GFP/RFP Relative Abundance (IKZF2; [6]) | IKZF1 GFP/RFP Relative Abundance (IKZF1; [4]) | IKZF1 GFP/RFP Relative Abundance (IKZF1; [5]) | IKZF1 GFP/RFP Relative Abundance (IKZF1; [6]) | SALL4 ZNF1-2 GFP/RFP Relative Abundance (SALL4 ZNF1-2; [4]) | SALL4 ZNF1-2 GFP/RFP Relative Abundance (SALL4 ZNF1-2; [5]) | SALL4 ZNF1-2 GFP/RFP Relative Abundance (SALL4 ZNF1-2; [6]) | GSPT1 GFP/RFP Relative Abundance (GSPT1; [4]) | GSPT1 GFP/RFP Relative Abundance (GSPT1; [5]) | GSPT1 GFP/RFP Relative Abundance (GSPT1; [6])
1 | O=C1CCC(N2C(=O)C=C(Nc3cccc(-c4nnn[nH]4)c3)C2=O)C(=O)N1 (stereo not drawn) [Compound 23, 3-(3-((3-(1H-tetrazol-5-yl)phenyl)amino)-2,5-dioxo-2,5-dihydro-1H-pyrrol-1-yl)piperidine-2,6-dione] | 0.326 | 0.259 | 0.196 | 1.013 | 1.016 | 1.015 | 0.866 | 1.044 | 0.756 | 0.922 | 0.979 | 0.981 | 0.976 | 0.936 | 0.953
2 | Cc1ccc(NC2=CC(=O)N(C3CCC(=O)NC3=O)C2=O)cc1C (stereo not drawn) [Compound 24, 3-(3-((3,4-dimethylphenyl)amino)-2,5-dioxo-2,5-dihydro-1H-pyrrol-1-yl)piperidine-2,6-dione] | 0.391 | 0.344 | 0.282 | 0.959 | 0.954 | 1.038 | 0.236 | 0.342 | 0.369 | 0.937 | 0.941 | 0.942 | 1.153 | 1.221 | 1.218
3 | O=C1CCC(N2C(=O)C=C(Nc3ccc(Cl)cc3)C2=O)C(=O)N1 (stereo not drawn) [Compound 25, 3-(3-((4-chlorophenyl)amino)-2,5-dioxo-2,5-dihydro-1H-pyrrol-1-yl)piperidine-2,6-dione] | 0.339 | 0.282 | 0.230 | 0.966 | 0.978 | 0.955 | 0.258 | 0.298 | 0.341 | 0.831 | 0.897 | 0.887 | 1.019 | 1.233 | 1.201
4 | O=C1CCC(N2C(=O)C=C(Nc3cccc(Cl)c3)C2=O)C(=O)N1 (stereo not drawn) [Compound 26, 3-(3-((3-chlorophenyl)amino)-2,5-dioxo-2,5-dihydro-1H-pyrrol-1-yl)piperidine-2,6-dione] | 0.365 | 0.293 | 0.228 | 0.913 | 0.929 | 0.981 | 0.290 | 0.381 | 0.478 | 0.855 | 0.869 | 0.787 | 0.952 | 1.036 | 1.107
5 | O=C1CCC(N2C(=O)C=C(Nc3cnc4ccccc4c3)C2=O)C(=O)N1 (stereo not drawn) [Compound 27, 3-(2,5-dioxo-3-(quinolin-3-ylamino)-2,5-dihydro-1H-pyrrol-1-yl)piperidine-2,6-dione] | 0.137 | 0.105 | 0.084 | 1.004 | 0.990 | 0.931 | 0.701 | 0.776 | 0.801 | 1.026 | 1.005 | 0.913 | 0.881 | 1.083 | 0.987
6 | CN(C1=CC(=O)N(C2CCC(=O)NC2=O)C1=O)c1ccccc1 (stereo not drawn) [Compound 28, 3-(3-(methyl(phenyl)amino)-2,5-dioxo-2,5-dihydro-1H-pyrrol-1-yl)piperidine-2,6-dione] | 0.072 | 0.050 | 0.053 | 1.006 | 1.011 | 1.064 | 0.978 | 0.996 | 1.029 | 0.969 | 0.936 | 0.946 | 1.001 | 0.917 | 0.805
7 | O=C1CCC(N2C(=O)C=C(Nc3ccc(-n4ccnc4)cc3)C2=O)C(=O)N1 (stereo not drawn) [Compound 29, 3-(3-((4-(1H-imidazol-1-yl)phenyl)amino)-2,5-dioxo-2,5-dihydro-1H-pyrrol-1-yl)piperidine-2,6-dione] | 0.347 | 0.297 | 0.270 | 0.982 | 1.005 | 0.942 | 0.495 | 0.516 | 0.602 | 0.958 | 0.913 | 0.908 | 0.790 | 0.913 | 0.729
8 | CCOC(=O)c1cccc(NC2=CC(=O)N(C3CCC(=O)NC3=O)C2=O)c1 (stereo not drawn) [Compound 30, Ethyl 3-((1-(2,6-dioxopiperidin-3-yl)-2,5-dioxo-2,5-dihydro-1H-pyrrol-3-yl)amino)benzoate] | 0.386 | 0.324 | 0.228 | 0.916 | 0.928 | 0.979 | 0.388 | 0.437 | 0.631 | 0.815 | 0.786 | 0.896 | 1.100 | 1.129 | 1.192
